*1 amine or outer side, *2 acyl side, *3 side chain or, on linkers, in order; H or OH if unused. Where a SMILES comes first, the peptide text is derived from it. Bridges are numbered along the chain shown (N, C = ends). [ ]: non-standard residue; d: D form. The star is where a group is joined. hPhe(3-Cl-4-CF3) = N[C@@H](CCc1ccc(C(F)(F)F)c(Cl)c1)C(=O)O; NPrPhe(4-CF3) = CCCN[C@@H](Cc1ccc(C(F)(F)F)cc1)C(=O)O; X13 = CCCN([C@@H](COC1CCC1)C(=O)[*:2])[*:1]; NMeGly(cPent) = CN[C@H](C(=O)O)C1CCCC1; cisHyp = O=C(O)[C@@H]1C[C@H](O)CN1; NMeD = CN[C@@H](CC(=O)O)C(=O)O; NMeL = CN[C@@H](CC(C)C)C(=O)O; Morpholide = C1CN(*)CCO1; NMeA = CN[C@@H](C)C(=O)O; Ac5c = NC1(C(=O)O)CCCC1; Aze = O=C(O)[C@@H]1CCN1; Ac4c = NC1(C(=O)O)CCC1; Sar = CNCC(=O)O
Legend:
[1] = target: GDP-bound NRAS wild-type protein (Homo sapiens, UniProt P01111); assay: Binding to NRAS by surface plasmon resonance (SPR), KD and KD ratio to KRAS
How it was run: (§1)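 Each cycle, GDP-bound biotin-Avi RAS was captured (~100–300 RU), compound concentrations were injected low to high for 75 s each at 100 µL/min, then the chip was regenerated. Buffer: HBS pH 7.4, 10 mM MgCl2, 10 µM GDP, 1 mM DTT, 4% DMSO; 30°C. KD from a 1:1 binding model.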

[2] = test system: human lung cancer strain NCI-H441; assay type: cell-based
How it was run: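 Signal came from […] measured per well once the reagent was added. Beforehand, cells were cultured at 37°C and 5% carbon dioxide on a compound series serially diluted in dimethyl sulfoxide.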

[3] = target: HRAS wild-type protein (Homo sapiens, UniProt P01112); assay: Binding to HRAS by surface plasmon resonance (SPR), KD and KD ratio to KRAS
How it was run: as §1

[4] = ratio of KD value for GDP-bound NRAS wild-type protein to KD value for KRAS (SPR)
[5] = ratio of KD value for HRAS wild-type protein to KD value for KRAS (SPR)
[6] = ratio of KD for GDP-bound NRAS wild-type protein to KD for KRAS
[7] = ratio of KD for HRAS wild-type protein to KD for KRAS
[8] = ratio of the KD value with respect to GDP-bound NRAS wild-type protein to the KD value with respect to KRAS
[9] = ratio of the KD value with respect to HRAS wild-type protein to the KD value with respect to KRAS

GDP-bound NRAS wild-type protein, sequence (P01111 whole entry): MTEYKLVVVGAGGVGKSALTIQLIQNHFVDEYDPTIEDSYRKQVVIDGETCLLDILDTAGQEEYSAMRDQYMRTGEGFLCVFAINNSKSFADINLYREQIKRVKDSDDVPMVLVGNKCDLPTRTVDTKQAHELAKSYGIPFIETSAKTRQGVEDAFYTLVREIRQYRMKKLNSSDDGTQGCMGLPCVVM
HRAS wild-type protein, sequence (P01112 whole entry): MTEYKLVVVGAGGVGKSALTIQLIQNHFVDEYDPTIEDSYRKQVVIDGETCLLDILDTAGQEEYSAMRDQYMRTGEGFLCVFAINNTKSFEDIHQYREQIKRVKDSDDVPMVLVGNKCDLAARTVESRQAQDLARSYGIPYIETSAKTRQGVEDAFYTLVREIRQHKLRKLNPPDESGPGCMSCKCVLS

Row | Structure (SMILES) | IC50 [2] [nM] | NRAS /KRAS [1, 8] | HRAS /KRAS [3, 9] | further results
1 | CCC[C@H]1C(=O)N[C@@H]([C@@H](C)CC)C(=O)N(C)CC(=O)N(C)[C@H]2C/C=C\CCN(C2=O)[C@@H](Cc2ccc(C)cc2)C(=O)N(C)CC(=O)N[C@@H](CCc2ccc(CC)c(Cl)c2)C(=O)N2C[C@H](OCC)C[C@H]2C(=O)NC2(CC(C)(C)C2)C(=O)N(C)[C@@H](C2CCCC2)C(=O)N(C)[C@H](C(=O)N(C)C)CC(=O)N1C [PP2778] | 22.3 |  |  | NRAS /KRAS [1, 6]: A (a compound having 10 or more and less than 20 is denoted as A); HRAS /KRAS [3, 7]: A (a compound having 10 or more and less than 20 is denoted as A)
2 | CCO[C@@H]1C[C@H]2C(=O)NC3(CC(C)(C)C3)C(=O)N(C)[C@@H](C(CC)CC)C(=O)N(C)[C@H](C(=O)N3CCCC3)CC(=O)N(C)[C@@H](C)C(=O)N[C@@H]([C@@H](C)CC)C(=O)N(C)CC(=O)N(C)[C@H]3C/C=C\CCN(C3=O)[C@@H](Cc3ccc(C)cc3)C(=O)N(C)CC(=O)N[C@@H](CCc3ccc(Cl)c(Cl)c3)C(=O)N2C1 [PP2187] | 31.4 | AA (a compound having 20 or more is denoted as AA) | A (a compound having 10 or more and less than 20 is denoted as A) | 
3 | CCO[C@@H]1C[C@H]2C(=O)NC3(CC(C)(C)C3)C(=O)N(C)[C@@H](C(CC)CC)C(=O)N(C)[C@H](C(=O)N(C)C)CC(=O)N(C)[C@@H](CC3CCC3)C(=O)N[C@@H]([C@@H](C)CC)C(=O)N(C)CC(=O)N(C)[C@H]3C/C=C\CCN(C3=O)[C@@H](Cc3ccc(C)cc3)C(=O)N(C)CC(=O)N[C@@H](CCc3ccc(C(F)(F)F)c(OC)c3)C(=O)N2C1 [PP2172] | 5.8 | A (a compound having 10 or more and less than 20 is denoted as A) | B (a compound having 3 or more and less than 10 is denoted as B) | 
4 | CCO[C@@H]1C[C@H]2C(=O)NC3(CC(C)(C)C3)C(=O)N(C)[C@@H](C(CC)CC)C(=O)N(C)[C@H](C(=O)N3CCCC3)CC(=O)N(C)[C@@H](COC)C(=O)N[C@@H]([C@@H](C)CC)C(=O)N(C)CC(=O)N(C)[C@H]3C/C=C\CCN(C3=O)[C@@H](Cc3ccc(C(F)(F)F)cc3)C(=O)N(C)CC(=O)N[C@@H](CCc3ccc(C(F)(F)F)c(Cl)c3)C(=O)N2C1 [PP2128] | 14.8 | AA (a compound having 20 or more is denoted as AA) | A (a compound having 10 or more and less than 20 is denoted as A) | 
5 | CCCOC[C@H]1C(=O)N[C@@H]([C@@H](C)CC)C(=O)N(C)CC(=O)N(C)[C@H]2C/C=C\CCN(C2=O)[C@@H](Cc2ccc(C(F)(F)F)cc2)C(=O)N(C)CC(=O)N[C@@H](CCc2ccc(C(F)(F)F)c(OC)c2)C(=O)N2C[C@H](OCC)C[C@H]2C(=O)NC2(CCC2)C(=O)N(C)[C@@H](C2CCCC2)C(=O)N(C)[C@H](C(=O)N(C)CC)CC(=O)N1C [PP2016] | 8.2 | A (a compound having 10 or more and less than 20 is denoted as A) | A (a compound having 10 or more and less than 20 is denoted as A) | 

Further lines, with some results ahead:

Row | IC50 [2] [nM] | Structure (SMILES) | NRAS /KRAS [1, 8] | HRAS /KRAS [3, 9] | further results
6 | 66.4 | CCO[C@@H]1C[C@H]2C(=O)NC3(CCC3)C(=O)N(C)[C@@H](C3CCCC3)C(=O)N(C)[C@H](C3CCCCC3)CC(=O)N(C)[C@@H](COC)C(=O)N[C@@H]([C@@H](C)CC)C(=O)N(C)CC(=O)N(C)[C@H]3C/C=C\CCN(C3=O)[C@@H](Cc3ccc(C(F)(F)F)cc3)C(=O)N(C)CC(=O)N[C@@H](CCc3cc(F)c(C(F)(F)F)c(F)c3)C(=O)N2C1 [PP1584] |  |  | NRAS /KRAS [1, 4]: B (a compound having 3 or more and less than 10 is denoted as B); HRAS /KRAS [3, 5]: B (a compound having 3 or more and less than 10 is denoted as B)
7 | 7 | CC[C@H](C)[C@@H]1NC(=O)[C@H](CC)N(C)C(=O)C[C@@H](C(=O)N(C)C)N(C)C(=O)[C@H](C2CCCC2)N(C)C(=O)C2(CCCC2)N(C)C(=O)[C@@H]2CCCN2C(=O)[C@H](CCc2cc(F)c(C(F)(F)F)c(F)c2)NC(=O)CN(C)C(=O)[C@H](Cc2ccc(C(F)(F)F)cc2)N2CC/C=C\C[C@@H](C2=O)N(C)C(=O)CN(C)C1=O [PP1805] |  |  | NRAS /KRAS [1, 4]: A (a compound having 10 or more and less than 20 is denoted as A); HRAS /KRAS [3, 5]: A (a compound having 10 or more and less than 20 is denoted as A)
8 | 837 | CC[C@H](C)[C@@H]1NC(=O)[C@H](CC(C)C)N(C)C(=O)C[C@@H](C(=O)N2CCOCC2)N(C)C(=O)[C@H](C2CCCC2)N(C)C(=O)C2(CCCC2)NC(=O)[C@@H]2C[C@H](OC)CN2C(=O)[C@H](CCc2cc(F)c(C(F)(F)F)c(F)c2)NC(=O)CN(C)C(=O)[C@H](Cc2ccc(C(F)(F)F)cc2)N2CCCCC[C@@H](C2=O)N(C)C(=O)CN(C)C1=O [PP0495] | A (a compound having 10 or more and less than 20 is denoted as A) | B (a compound having 3 or more and less than 10 is denoted as B) | 
9 | 37.6 | CCO[C@@H]1C[C@H]2C(=O)NC3(CCC3)C(=O)N(C)[C@@H](C3CCCC3)C(=O)N(C)[C@H](C(=O)N(C)C)CC(=O)N(C)[C@@H](CC)C(=O)N[C@@H]([C@@H](C)CC)C(=O)N(C)CC(=O)N(C)[C@H]3CCCCCN(C3=O)[C@@H](Cc3ccc(F)c(OC)c3)C(=O)N(C)CC(=O)N[C@@H](CCc3cc(F)c(C(F)(F)F)c(F)c3)C(=O)N2C1 [PP0915] |  |  | NRAS /KRAS [1, 6]: B (a compound having 3 or more and less than 10 is denoted as B); HRAS /KRAS [3, 7]: B (a compound having 3 or more and less than 10 is denoted as B)
10 | 13.9 | CCC[C@H]1C(=O)N[C@@H]([C@@H](C)CC)C(=O)N(C)CC(=O)N(C)[C@H]2C/C=C\CCN(C2=O)[C@@H](Cc2ccc(C(F)(F)F)cc2)C(=O)N(C)CC(=O)N[C@@H](CCc2cc(F)c(C(F)(F)F)c(F)c2)C(=O)N2C[C@H](OCC)C[C@H]2C(=O)NC2(CCC2)C(=O)N(C)[C@@H](C2CCCC2)C(=O)N(C)[C@H](C(=O)N(C)CCOC)CC(=O)N1C [PP1331] |  |  | NRAS /KRAS ([1]; ratio of KD with respect to GDP-bound NRAS wild-type protein to KD with respect to KRAS): A (a compound having 10 or more and less than 20 is denoted as A); HRAS /KRAS ([3]; ratio of KD with respect to HRAS wild-type protein to KD with respect to KRAS): A (a compound having 10 or more and less than 20 is denoted as A)
11 | 74.8 | CCCN1C(=O)[C@@H]2CCN2C(=O)[C@H](C)N(C)C(=O)[C@H]([C@@H](C)CC)NC(=O)[C@H](CC(C)C)N(C)C(=O)C[C@@H](C(=O)N2CCOCC2)N(C)C(=O)[C@H](C2CCCC2)N(C)C(=O)C2(CCC2)NC(=O)[C@@H]2CCCN2C(=O)[C@H](CCc2ccc(C(F)(F)F)c(Cl)c2)NC(=O)CN(C)C(=O)[C@@H]1COC1CCC1 [PP1818] ([NMeL]I[NMeA][Aze][X13][Sar][hPhe(3-Cl-4-CF3)]P[Ac4c][NMeGly(cPent)][NMeD]-Morpholide; lactam N-11) |  |  | NRAS /KRAS [1, 4]: C (A compound having a KD ratio of 0.1 or more and less than 3 is denoted as C); HRAS /KRAS [3, 5]: B (a compound having 3 or more and less than 10 is denoted as B)
12 | 23.2 | CCCN1C(=O)CN(C)C(=O)CN(C)C(=O)[C@H]([C@@H](C)CC)NC(=O)[C@H](CC(C)C)N(C)C(=O)C[C@@H](C(=O)N2CCOCC2)N(C)C(=O)[C@H](C2CCCC2)N(C)C(=O)C2(CCCC2)NC(=O)[C@@H]2C[C@H](OCC)CN2C(=O)[C@H](CCc2ccc(C(F)(F)F)c(Cl)c2)NC(=O)CN(C)C(=O)[C@@H]1Cc1ccc(C(F)(F)F)cc1 [PP0243] ([NMeL]I[Sar][Sar][NPrPhe(4-CF3)][Sar][hPhe(3-Cl-4-CF3)][cisHyp](Et)[Ac5c][NMeGly(cPent)][NMeD]-Morpholide; lactam N-11) |  |  | NRAS /KRAS [1, 6]: B (a compound having 3 or more and less than 10 is denoted as B); HRAS /KRAS [3, 7]: C (A compound having a KD ratio of 0.1 or more and less than 3 is denoted as C)

— EP4603105A1, “PHARMACEUTICAL COMPOSITION CONTAINING CYCLIC COMPOUND HAVING SELECTIVE KRAS INHIBITORY EFFECT AGAINST HRAS AND NRAS” (CHUGAI SEIYAKU KABUSHIKI KAISHA, priority 2022, dated 2024)
